One series relates to Hela cells. Kind of series: Cell anti-proliferative activity, CCK8 assay. Particulars: Homo sapiens, CCK8, 48 h, 0.25 to 16.0 μM. Type of series: cell-based. How it is done:
Cell anti-proliferative activity to Hela was evaluated by the CCK8 assay. The Hela cells were seeded at a density of 2,000 cells per well into a 96-well microplate in 100 μl of the growth medium. Cells were incubated at 37°C and 5% CO2 overnight. The next day, 100 μl per well of the diluted inhibitor in the growth medium was added with the final concentration from 0.25 to 16.0 μM. The cells were treated with DMSO as control. A series of dilutions were made in 0.1% DMSO in the assay medium so that the final concentration of DMSO was 0.1% in all of treatments. Cells were incubated at 37°C and 5% CO2 for 48 h. Then, 10 μl of CCK8 was added to each well. The plates were incubated at 37°C for 2 h, after that, the plates were recorded by measuring the absorbance at 450 nm with the reference wavelength of 630 nm using an EnVision Multilabel Reader (PerkinElmer). All assays were conducted with three parallel samples and three repetitions.
Background: Tetrazolium dyes change colour on reduction, which living cells bring about.

Series [1] deals with SHEE cells (human immortalized esophageal epithelial cell line). Kind of series: Toxicity to SHEE, MTT assay. To be noted: 48 h, read-out: IC50 SHEE. In kind it is cell-based. How it is done: Toxicity to SHEE was evaluated by using the MTT assay. The SHEE cells were seeded in 96-well plates with densities of 2,200–2,500 cells/well in 100 μl. One day after seeding, the concentration of the test compounds being between 0 and 50 μM, 0.1% DMSO were added to the cells as control. Approximately 2,200–2,500 transfected cells in 100 μl were incubated in quintuplicate in 96-well plates. After 48 h, MTT was added and incubated in the plate for 1–4 h in the incubator. The absorbance at 490 nm was measured using a microplate reader (Thermo).

On the set-up of series [2]: method as in Ma et al. (2019). Particulars: ref Ma et al. (2019); cited from earlier work.
The target in a further series is T1, human IDO1 (Homo sapiens, UniProt P14902).
T1 construct: Hela cell was selected because of its expression in native human IDO1 induced with IFNγ; endogenous in cells; host or cells: Hela cells (ATCC), induced with human IFN-γ 100 ng/ml
T1 sequence (P14902 whole entry): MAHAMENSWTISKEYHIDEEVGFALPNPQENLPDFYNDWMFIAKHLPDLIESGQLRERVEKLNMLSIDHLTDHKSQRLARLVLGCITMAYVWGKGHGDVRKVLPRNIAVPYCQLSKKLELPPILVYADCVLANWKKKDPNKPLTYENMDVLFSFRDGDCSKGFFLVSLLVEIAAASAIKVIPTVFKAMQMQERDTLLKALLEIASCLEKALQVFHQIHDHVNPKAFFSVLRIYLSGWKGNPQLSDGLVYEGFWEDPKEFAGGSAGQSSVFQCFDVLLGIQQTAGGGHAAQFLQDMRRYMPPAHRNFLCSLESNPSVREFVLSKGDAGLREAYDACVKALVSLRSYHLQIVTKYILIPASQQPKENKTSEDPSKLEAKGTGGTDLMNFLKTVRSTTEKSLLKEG
Kind of series: Hela cell based IDO1 assay (kynurenine readout, IFN-γ induced). To be noted: Hela cells, human IFN-γ 100 ng/ml, 18 h. How it is done: To perform the Hela cell based IDO1 assay, Hela cells were seeded at 50,000 cells per well into a 96-well microplate in 100 μl of DMEM complete growth medium overnight. The next day, 100 μl of the diluted inhibitor was added into each well in the growth medium, then human IFN-γ was added with a final concentration of 100 ng/ml. Cells were incubated for 18 h. […] The plate was incubated at 50°C for 30 min to hydrolyze N-formyl kynurenine produced by IDO to kynurenine. The plate was then centrifuged at 2,500 rpm for 10 min to remove sediments. 100 μl of supernatant per well was transferred to another 96-well plate and mixed with 100 μl of 2% (w/v) 4-(dimethylamino) benzaldehyde in acetic acid. The plate was incubated at room temperature for 10 min, the yellow color derived from kynurenine was recorded by measuring the absorbance at 480 nm using a microplate reader (PerkinElmer, United States).

In another series the test system is IDO1. Particulars: read-out: average IC50, cellular assay; ref Yue et al., 2017; Komiya and Huang, 2018; cited from earlier work.

Each structure is given as a SMILES string. Read-outs that look alike come from different tables or passages of the source.

As a reminder, the IC50 is the concentration needed to halve the response being measured. What is called melting point is the temperature of the solid-liquid transition. As to `COCCOc1cc2ncnc(Nc3cccc(-c4cn(Cc5ccccc5)nn4)c3)c2cc1OCCOC` [compound b, N-(3-(1-Benzyl-1H-1,2,3-triazol-4-yl)phenyl)-6,7-bis(2-methoxyethoxy)quinazolin-4-amine], the melting point lay within 89 to 92 °C. The same molecule displayed an IC50 in the series with Hela cells of over 16 µM. The IC50 in series [1] (MTT, 0 to 50 μM) was over 50 µM.
With `O[C@H](C[C@H]1c2c(F)cccc2-c2cncn21)[C@H]1CC[C@H](O)CC1` [Navoximod], in series [2], the absorption entry is reported as “quickly absorbed” and the tolerability entry is recorded as “well tolerated”.
The molecule `COCCOc1cc2ncnc(Nc3cccc(-c4cn(CCc5ccccc5)nn4)c3)c2cc1OCCOC` [compound c, [6,7-Bis-(2-methoxy-ethoxy)-quinazolin-4-yl]-[3-(1-phenethyl-1H-[1,2,3]triazol-4-yl)-phenyl]-amine] registered a melting point of 109 to 112 °C. In addition, on human IDO1, it took 47.1 ± 33.2 µM to reach half-maximal inhibition (IC50). The IC50 in the series with Hela cells was over 16 µM.
Regarding `NS(=O)(=O)NCCNc1nonc1C(=NO)Nc1ccc(F)c(Br)c1` [Epacadostat], the IC50 with IDO1 was […].
On to `COCCOc1cc2ncnc(Nc3cccc(-c4cn(-c5ccccc5)nn4)c3)c2cc1OCCOC` [compound a, [6,7-Bis-(2-methoxy-ethoxy)-quinazolin-4-yl]-[3-(1-phenyl-1H-[1,2,3]triazol-4-yl)-phenyl]-amine], for which, in the series with Hela cells, the half-maximal inhibitory concentration (IC50) was over 16 µM.
Take `COCCOc1cc2ncnc(Nc3cccc(-c4cn(Cc5ccccc5Br)nn4)c3)c2cc1OCCOC` [compound e, [6,7-Bis-(2-methoxy-ethoxy)-quinazolin-4-yl]-{3-[1-(2-bromo-benzyl)-1H-[1,2,3]triazol-4-yl]-phenyl}-amine]: the melting point fell in the range of 94 to 97 °C. The same molecule gave an IC50 on human IDO1 of 0.32 ± 0.07 µM. The same molecule returned a 50% inhibitory concentration (IC50) with Hela cells of over 16 µM.
Turning to `C#Cc1cccc(Nc2ncnc3cc(OCCOC)c(OCCOC)cc23)c1` [Erlotinib, reference compound], the IC50 in the series on Hela cells was over 16 µM; in series [1], 21 ± 2.11 µM.
As for `COCCOc1cc2ncnc(Nc3cccc(-c4cn(Cc5ccccc5I)nn4)c3)c2cc1OCCOC` [compound d, [6,7-Bis-(2-methoxy-ethoxy)-quinazolin-4-yl]-{3-[1-(2-iodo-benzyl)-1H-[1,2,3]triazol-4-yl]-phenyl}-amine], the melting point lay in the range of 93 to 96 °C. This molecule displayed an IC50 on human IDO1 of 0.4 ± 0.14 µM.

The record behind these values is PMC9168369 (Frontiers in Pharmacology, 2022).
